Measurements as given in US8088828B2, “Treating benign prostate hyperplasia with SARMS” (priority 2002, dated 2012).

Experiments:
[1] = system: male Sprague-Dawley rats (intact, hemi-orchidectomized, castrated); assay: Prostate, seminal vesicle and levator ani muscle weights in rats of varying hormonal status; format: in vivo, rat; conditions: 0.5 mg/day, 14 days
Excerpt: (§1) Methods: Compound VI was synthesized and characterized in the laboratory of Dr. Duane Miller at the University of Tennessee, Memphis, Tenn. Male Sprague-Dawley rats were purchased from Harlan Biosciences (Indianapolis, Ind.). The animals were maintained on a 12-h cycle of light and dark with food and water available ad libitum. All animal studies were reviewed and approved by the Animal Care and Use Committee of The Ohio State University, and conformed to the Principles of Laboratory Animal Care. Immature male Sprague-Dawley rats weighing […] were randomly distributed into 9 groups of 5 animals. One day before the initiation of drug treatment, groups 4 through 6 and groups 7 through 9 received unilateral or bilateral orchidectomy, respectively, via a midline scrotal incision. […] All drugs given to animals were freshly prepared as solutions in polyethylene glycol 300 (PEG 300). Groups 4 and 7 received treatment with vehicle alone (i.e., PEG 300). Animals in groups 3, 6, and 9 received testosterone propionate (TP, 0.5 mg/day) via implantation of subdermal osmotic pumps (Model 2002, Durect Corporation, Palo Alto, Calif.). Animals in groups 2, 5, and 8 received Compound VI (0.5 mg/day) via implantation of subdermal osmotic pumps. After 14 days of drug treatment, rats were weighed, anesthetized, and sacrificed. Blood samples were collected by venipuncture of the abdominal aorta. Plasma samples were analyzed for testosterone, FSH, LH and osteocalcin. Testosterone concentrations were measured by AniLytics Inc. (Gaithersburg, Md.). FSH and LH levels were measured by the National Hormone and Peptide Program (Dr. A F Parlow, UCLA, CA). Plasma osteocalcin levels were determined using a commercially available rat osteocalcin EIA kit from Biomedical Technologies Inc. (Stoughton, Mass.). The ventral prostates, seminal vesicles, and levator ani muscle were removed and weighed. Osmotic pumps were also removed from animals to check for correct pump operation. The weights of all organs were normalized to body weight, and analyzed for any statistically significant differences between groups using single-factor ANOVA with the alpha value set a priori at p<0.05. The weights of prostates and seminal vesicles were used as indices for evaluation of androgenic activity, and the levator ani muscle weight was used to evaluate the anabolic activity. Statistical analyses of parameters from complete blood count or serum chemical profiling, wherever applicable, were performed by single-factor ANOVA with the alpha value set a priori at p<0.05.

[2] = system: male Sprague-Dawley rats (intact, hemi-orchidectomized, castrated); assay: Plasma testosterone, FSH, LH and osteocalcin in rats of varying hormonal status; format: in vivo, rat; conditions: for Plasma FSH levels / Plasma LH levels / Plasma osteocalcin levels / Plasma testosterone levels: 0.5 mg/day osmotic pump, 14 days
Excerpt: as §1

[3] = target: T1, human 5α-reductase type 2 (Homo sapiens, UniProt P31213); format: cell-based
T1 construct: expressed in transfected cells; host or cells: COS1 cells; expression vectors obtained from Dr. David W. Russell
T1 sequence (P31213 1-254): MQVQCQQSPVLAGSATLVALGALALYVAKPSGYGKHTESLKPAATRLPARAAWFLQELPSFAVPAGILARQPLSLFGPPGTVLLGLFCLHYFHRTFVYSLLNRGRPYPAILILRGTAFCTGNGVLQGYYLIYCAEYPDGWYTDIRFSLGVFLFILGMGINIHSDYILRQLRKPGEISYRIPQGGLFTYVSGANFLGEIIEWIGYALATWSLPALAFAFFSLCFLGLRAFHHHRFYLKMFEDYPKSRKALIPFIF
Protocol: (§2) Methods: COS1 (American Type Culture Collection, Manassas, Va.) cells were plated in twelve-well plates at a density of 60,000 cells/well and transiently transfected with expression vectors for human 5•-reductase (obtained from Dr. David W. Russell, Southwestern Medical Center, Dallas, Tex.). LipofectAMINE PLUS™ Reagent (Invitrogen, Carlsbad, Calif.) was used for transfection. pCMV•SPORT-•gal plasmid (Invitrogen, Carlsbad, Calif.) was co-transfected to monitor transfection efficiency. Forty-eight hours after transfection, testosterone (4 μM) and/or Compound VI (2 or 200 μM) were added to the medium and incubated at 37° C. Aliquots of the culture medium were removed after 2 hours and the reaction stopped by addition of ice-cold acetonitrile (1:1, vol:vol). Testosterone and Compound VI concentrations in the incubate were determined by HPLC using a reversed-phase column (μBondaPak C18, 3.9×300 mm, Waters Corporation, Milford, Mass.) and a mobile phase of 38% acetonitrile in deionized water at a flow rate of 1.5 ml/min. Analytes were detected by UV absorbance at 254 nm. Calibration curves were prepared using the peak areas to calculate the concentration of testosterone or Compound VI in the incubate at the completion of the reaction. Cells were lysed after the reaction and the cellular supernatant used to determine •-galactosidase activity and ensure equal transfection efficiency between wells.

[4] = target: T2, human 5α-reductase type 1 (Homo sapiens, UniProt P18405); format: cell-based
T2 construct: expressed in transfected cells; host or cells: COS1 cells; expression vectors obtained from Dr. David W. Russell
T2 sequence (P18405 1-259): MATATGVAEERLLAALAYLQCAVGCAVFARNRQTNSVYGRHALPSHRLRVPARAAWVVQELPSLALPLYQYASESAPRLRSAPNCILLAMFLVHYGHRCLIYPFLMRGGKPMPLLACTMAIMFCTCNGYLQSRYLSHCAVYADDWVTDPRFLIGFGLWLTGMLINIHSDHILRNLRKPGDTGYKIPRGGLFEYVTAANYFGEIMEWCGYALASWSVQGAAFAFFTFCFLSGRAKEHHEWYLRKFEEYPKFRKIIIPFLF
Protocol: as §2

[5] = system: intact male Sprague-Dawley rats; assay: Organ weights in intact male rats after 3, 6 or 9 days of daily subcutaneous injections; format: in vivo, rat
Protocol: Methods: Male Sprague-Dawley rats were purchased from Harlan Biosciences (Indianapolis, Ind.). The animals were maintained on a 12-h cycle of light and dark with food and water available ad libitum. Male Sprague-Dawley rats weighing 189 to 226 g were randomly distributed into groups of 5 animals. The intact male rats were treated with hydroxy-flutamide (0.5, 1, 5, 10 or 25 mg/kg), finasteride (5 mg/kg), Compound VII (0.5, 1, 5, 10, 25 mg/kg) or vehicle for 3, 6, or 9 days. The drugs were dissolved in DMSO:PEG300 (20:80, v:v) and administered via daily subcutaneous injections, and the dosages were adjusted based on animal's body weight, which was measured on a daily basis. A group of castrated rats (n=5) was also included as control for each time point. […] The organ weights were normalized with the body weights. Percentage changes were determined by comparison to intact animals. Statistical analyses of all the parameters were performed by single-factor ANOVA with the alpha value set a priori at p<0.05.

[6] = all surgical groups, 0.5 mg/day
[7] = Compound VI 2 μM, 2-hour incubation
[8] = testosterone 4 μM, Compound VI 2 μM or 200 μM, 2 hours
[9] = testosterone 4 μM alone, 2 hours
[10] = 3 days, all doses (0.5, 1, 5, 10, mg/kg) s.c.

| Structure (SMILES) | Levator ani muscle weight normalized to body weight ([1]; castrated rats) | Prostate weight normalized to body weight ([1]; castrated rats) | Seminal vesicle weight normalized to body weight ([1]; castrated rats) | Levator ani muscle weight normalized to body weight ([1]; hemi-orchidectomized rats) | Prostate weight normalized to body weight ([1]; hemi-orchidectomized rats) | Seminal vesicle weight normalized to body weight ([1]; hemi-orchidectomized rats) | Levator ani muscle weight normalized to body weight ([1]; intact rats) | Prostate weight normalized to body weight ([1]; intact rats) | Seminal vesicle weight normalized to body weight ([1]; intact rats) | Plasma FSH levels ([2]; castrated rats) | Plasma LH levels ([2]; castrated rats) | Plasma osteocalcin levels ([2]; castrated rats) | Plasma testosterone levels ([2]; castrated rats) | Plasma FSH levels ([2]; hemi-orchidectomized rats) | Plasma LH levels ([2]; hemi-orchidectomized rats) | Plasma osteocalcin levels ([2]; hemi-orchidectomized rats) | Plasma testosterone levels ([2]; hemi-orchidectomized rats) | Plasma FSH levels ([2]; intact rats) | Plasma LH levels ([2]; intact rats) | Plasma osteocalcin levels ([2]; intact rats) | other results |
| --- | --- | --- | --- | --- | --- | --- | --- | --- | --- | --- | --- | --- | --- | --- | --- | --- | --- | --- | --- | --- | --- |
| CC(=O)Nc1ccc(OC[C@](C)(O)C(=O)Nc2ccc([N+](=O)[O-])c(C(F)(F)F)c2)cc1 [Compound VI] | 100.65 ± 10.86 % of intact control | 32.55 ± 11.65 % of intact control | 16.47 ± 5.21 % of intact control | 108.10 ± 8.92 % of intact control | 74.69 ± 8.44 % of intact control | 78.55 ± 13.58 % of intact control | 109.15 ± 14.68 % of intact control | 79 % of intact control | 90.54 ± 12.10 % of intact control | 69.6 ± 11.7 ‡ ng/ml | 8.644 ± 2.799 ‡ ng/ml | 94.215 ± 12.568 ng/mL | 0.066 ± 0.148 ‡ ng/ml | 15.2 ± 2.2 ng/mL | 0.124 ± 0.115 ng/mL | 89.804 ± 15.517 ng/mL | 1.404 ± 0.810 ng/mL | 14.4 ± 1.7 ng/mL | 0.026 ± 0.037 ng/mL | 55.584 ± 9.715 ng/mL | size of the levator ani muscle ([1]; hemi-orchidectomized rats): 108 % of that observed in untreated hemi-orchidectomized animals; size of the prostate ([1]; hemi-orchidectomized rats): 75 % of that observed in untreated hemi-orchidectomized animals; size of the seminal vesicles ([1]; hemi-orchidectomized rats): 79 % of that observed in untreated hemi-orchidectomized animals; changes in the size of the seminal vesicles or levator ani muscle ([1]; intact rats): no statistically significant changes; Prostate weight normalized to body weight ([1]; intact rats, listed as COMPOUND VI): 79.41 ± 9.32 % of intact control; adverse pharmacologic effects ([1]; rats): No adverse pharmacologic effects were observed; effect on plasma FSH and LH levels [2, 6]: no effect; effect on plasma osteocalcin levels ([2]; hemi-orchidectomized and castrated animals, 0.5 mg/day): significant increase; Plasma testosterone levels ([2]; intact rats): 1.830 ± 0.510 ng/mL; effect on plasma testosterone levels ([2]; intact, hemi-orchidectomized or castrated male rats, 0.5 mg/day): did not affect; type of inhibition of 5α-reductase type 2 [3]: competitive inhibitor; metabolism of Compound VI by 5α-reductase type 2 [3, 7]: not metabolized; decrease in testosterone concentration in the presence of Compound VI [3, 8]: less than 10%; type of inhibition of 5α-reductase type 1 [4]: competitive inhibitor; metabolism of Compound VI by 5α-reductase type 1 [4, 7]: not metabolized; decrease in testosterone concentration in the presence of Compound VI [4, 8]: less than 10% |
| CCC(=O)O[C@H]1CC[C@H]2[C@@H]3CCC4=CC(=O)CC[C@]4(C)[C@H]3CC[C@]12C [TP, testosterone propionate, reference compound] | 87.27 ± 10.25 % of intact control | 76.78 ± 10.43 % of intact control | 63.48 ± 17.05 % of intact control | 98.63 ± 10.47 % of intact control | 98.57 ± 7.98 % of intact control | 114.19 ± 23.81 % of intact control | 95.61 ± 9.34 % of intact control | 97.45 ± 10.82 % of intact control | 103.95 ± 13.23 % of intact control | 58.0 ± 6.9 † ‡ ng/ml | 6.702 ± 1.513 ‡ ng/ml | 65.976 ± 11.213 ng/mL | 0.258 ± 0.103 † ‡ ng/ml | 17.2 ± 3.3 ng/mL | 0.124 ± 0.092 ng/mL | 77.236 ± 24.418 ng/mL | 2.366 ± 1.232 ng/mL | 11.4 ± 1.7 ng/mL | 0.168 ± 0.173 ng/mL | 74.952 ± 15.399 ng/mL | effect on plasma osteocalcin levels [2, 6]: no effect; effect on plasma FSH and LH levels ([2]; castrated male rats, 0.5 mg/day): significant decrease; Plasma testosterone levels ([2]; intact rats): 1.482 ± 0.416 ng/mL |
| C[C@]12CC[C@H]3[C@@H](CCC4=CC(=O)CC[C@@]43C)[C@@H]1CC[C@@H]2O [Testosterone, testosterone, reference compound] |  |  |  |  |  |  |  |  |  |  |  |  |  |  |  |  |  |  |  |  | decrease in testosterone concentration (conversion to DHT) [3, 9]: 35%; decrease in testosterone concentration (conversion to DHT) [4, 9]: 34% |
| CC(C)(C)NC(=O)[C@H]1CC[C@H]2[C@@H]3CC[C@H]4NC(=O)C=C[C@]4(C)[C@H]3CC[C@]12C [finasteride] |  |  |  |  |  |  |  |  |  |  |  |  |  |  |  |  |  |  |  |  | effect on levator ani muscle weight ([5]; 3 days, 5 mg/kg s.c.): no effect; prostate weight (compared to intact animals) ([5]; 3 days, 5 mg/kg s.c.): 59%; seminal vesicle weight (compared to intact animals) ([5]; 3 days, 5 mg/kg s.c.): 38%; changes in levator ani muscle weight ([5]; 6 days, 5 mg/kg s.c.): no significant changes; prostate weight (compared to intact animals) ([5]; 6 days, 5 mg/kg s.c.): 67%; seminal vesicle weight (compared to intact animals) ([5]; 6 days, 5 mg/kg s.c.): 47%; change in levator ani muscle weight ([5]; 9 days, 5 mg/kg s.c.): not significantly changed; prostate weight (compared to intact animals) ([5]; 9 days, 5 mg/kg s.c.): 55%; seminal vesicle weight (compared to intact animals) ([5]; 9 days, 5 mg/kg s.c.): 29% |
| CC(C)(O)C(=O)Nc1ccc([N+](=O)[O-])c(C(F)(F)F)c1 [hydroxy-flutamide] |  |  |  |  |  |  |  |  |  |  |  |  |  |  |  |  |  |  |  |  | levator ani muscle weight (compared to intact animals) [5, 10]: ~85%; prostate weight (normalized to body weight, compared to intact animals) [5, 10]: approximately 60%; seminal vesicle weight (compared to intact animals) [5, 10]: ~50%; levator ani muscle weight (compared to intact animals) ([5]; 6 days, 25 mg/kg s.c.): 65%; prostate weight (compared to intact animals) ([5]; 6 days, 25 mg/kg s.c.): 54%; seminal vesicle weight (compared to intact animals) ([5]; 6 days, 25 mg/kg s.c.): 41%; organ weights (prostate, seminal vesicle, levator ani muscle) ([5]; 6 days, lower dose groups (0.5, 1, 5, 10 mg/kg) s.c.): returned to the levels observed in intact animals; effects on all the organ weights compared to previous time points ([5]; 9 days, 25 mg/kg s.c.): maintained its effects on all the organ weights at a similar level; changes in prostate, seminal vesicle and levator ani muscle weights ([5]; 9 days, lower doses (0.5, 1, 5, 10 mg/kg) s.c., dose-dependent): moderate decreases |
